Measurements published in patent publication US20230414615A1, “PYRIMIDINONE COMPOUNDS FOR TREATING ACUTE INFLAMMATION” (TES Pharma S.r.l., priority 2022, published 2023).

Key:
Kupffer cells [1] = experiment: NAD+ biosynthesis in Kupffer cells; type: cell-based
rat renal NRK52E cells = experiment: OPA-1 expression in rat renal NRK52E cells following Cisplatin insult; type: cell-based; conditions: via SIRT-3 activation; following Cisplatin insult (100 μM)
[2] = system: mouse primary hepatocytes; experiment: SOD2 activity in mouse primary hepatocytes; type: cell-based; conditions: treatment for 24 hrs; stated as dose-dependent
primary hepatocytes [3] = experiment: Gene expression / mRNA levels in primary hepatocytes; type: cell-based, mouse
liver and kidneys = experiment: Transcription of mitochondrial genes in liver and kidneys after administration of ACMSD inhibitors; type: in vivo
[4] = system: co-culture of primary hepatocytes and stellate cells; experiment: Gene expression in co-culture of primary hepatocytes and stellate cells after free fatty acid mix; type: cell-based; conditions: 5 μM; after 6 hr exposure to palmitate (0.33 mM) and oleate (0.66 mM)
[5] = system: co-culture of primary hepatocytes and stellate cells; experiment: Cytokine secretion in co-culture of primary hepatocytes and stellate cells following LPS-induced inflammation; type: cell-based; conditions: LPS 50 ng/mL
[6] = system: kidney proximal tubular HK2 cells; experiment: NAD+ biosynthesis in kidney proximal tubular HK2 cells; type: cell-based
primary hepatocytes [7] = experiment: SIRT1 activation in primary hepatocytes; type: cell-based; conditions: 500 nM; 24 hrs after treatment
primary hepatocytes [8] = experiment: NAD+ biosynthesis in primary hepatocytes; type: cell-based
[9] = system: co-culture primary hepatocytes and Kupffer cells; experiment: IL-6 secretion in co-culture of primary hepatocytes and Kupffer cells following LPS-induced inflammation; type: cell-based; conditions: LPS 50 ng/mL; stated as dose-dependent
[10] = system: human primary bone marrow mononuclear cells (BMMCs); experiment: LPS-induced cytokine secretion in human primary bone marrow mononuclear cells (BMMCs); type: cell-based; conditions: BMMC cells; LPS 50 ng/mL
Kupffer cells [11] = experiment: Cytokine secretion in Kupffer cells following LPS-induced inflammation (Bio-Plex); type: cell-based, mouse; conditions: LPS 50 ng/mL
Excerpt: […] Cells treated with DMSO were used as control at the final concentration of 0.5% in medium. All the wells were normalized with DMSO at 0.5% final concentration. The supernatant was collected to measure cytokine secretion using a Bio-Plex Pro mouse cytokine 23-plex assay system (cat #M60009RDPD) using a Bio-Plex Instrument. The cells were washed once with PBS, and then lysed to extract total RNA for performing RT-PCR to evaluate ACMSD modulation of IL-10, SIRT1, and STAT3 gene expression.
All cytokine secretion values were normalized to the luminescent signal relative to the measuring of the cellular ATP (CellTiter-Glo cat #G7571)).

N#Cc1c(-c2cccs2)nc(SCc2cccc(-c3nn[nH]n3)c2)[nH]c1=O [Compound I-17]
NAD+ biosynthesis (Kupffer cells [1]): restores | expression of OPA-1 (rat renal NRK52E cells): increasing | activity of mitochondrial superoxide dismutase 2, SOD2 [2]: increases | mRNA levels of mitochondrial genes TFAM, Ndufa, Uqcrc1, CytC, Atp5g1 and CS (primary hepatocytes [3]; mouse primary hepatocytes after 24 hr treatment): increases | expression of mitochondrial SOD2 (primary hepatocytes [3]; primary hepatocytes): increases | mRNA levels of fatty acid oxidation genes Mcad, Cpt1a, Hadha1, Hsl, Pdk4 and Sdha (primary hepatocytes [3]; primary hepatocytes after 6 hr exposure to palmitate (0.33 mM) and oleate (0.66 mM)): increases | expression of mitochondrial transcription factor A, TFAM (primary hepatocytes [3]; primary hepatocytes, via SIRT-1 activation): increasing | expression of the same genes (Mcad, Cpt1a, Ndufa2, Atp5g1, Sod2) in the kidneys (liver and kidneys; kidneys): unaffected | transcription of the mitochondrial genes Mcad, Cpt1a, Ndufa2, Atp5g1 and Sod2 in the liver (liver and kidneys; liver): induces | expression of IL-1β [4]: reduced | expression of TNFα [4]: reduced | expression of pro-fibrotic chemokine CTGF [4]: reduces | expression of pro-fibrotic cytokine TGF-β [4]: reduces | expression of the pro-fibrotic genes BAX, ACTA2, Col1A1, fibronectin, THBS-1 and TIMP2 [4]: reduces | secretion of IL-1β ([5]; 1 μM): reduces | secretion of TNFα [5]: reduces | NAD+ biosynthesis [6]: restores | SIRT1 activation (primary hepatocytes [7]): activate | NAD+ biosynthesis (primary hepatocytes [8]): restores | secretion of IL-6 [9]: reduced | secretion of TNFα [10]: reduces | secretion of IL-1β (Kupffer cells [11]; 1 μM): reduces | secretion of IL-6 (Kupffer cells [11]; 1 μM, incubation time 24 h): reduced | secretion of TNFα (Kupffer cells [11]): reduces
